Consider 2 compounds from paper PMC9024521, “4-Heteroaryl Substituted Amino-3,5-Dicyanopyridines as New Adenosine Receptor Ligands: Novel Insights on Structure-Activity Relationships and Perspectives” (Pharmaceuticals, 2022).

What is called solubility is how much of the substance goes into solution per volume. The Ki is the equilibrium dissociation constant of an inhibitor or competing ligand from its target. Low readings indicate higher affinity, high ones lower affinity.

Data set [1] is described as follows: Solubility in testing medium. Type of data set: physicochemical. The conditions noted are these: PBS + Tween 80 (2% w/w), pH 7.4, aqueous with cosolvent or surfactant or cyclodextrin.
Data set [2] is described as follows: In vitro permeation, vertical Franz diffusion cell. The conditions noted are these: cellulose nitrate membrane impregnated with lauryl alcohol, PBS pH 7.4 + Tween 80 2% w/w, 37 °C. The class given is in vitro ADME. As to the method:
Compounds 1 and 5 were evaluated for their capability to penetrate the artificial membrane simulating the epidermal barrier. Permeation flux was assessed by using vertical Franz diffusion cells.
Compound assay was performed by HPLC (Merck Hitachi Elite LaChrom apparatus, Darmstadt, Germany), equipped with a L-2400 UV–Vis detector and an L-2130 isocratic pump. The mobile phase A was water, and the mobile phase B was methanol. Gradient steps were programmed as follows: A–B 60%–40% at time 0, ramped to 70% B in 3 min, held at 70% for 2 min and returned to initial conditions during 3 min. A Hibar Purospher® RP-8e (150 × 4.6 mm, 5 µm pore size) was the stationary phase. UV detection was performed at 292 nm. The injection volume was 20 µL, the flow rate was 1.2 mL/min and the column temperature was 40 ± 1 °C. Under these conditions, the compounds retention time was 5.30 ± 0.01 min. The method was validated for linearity (r^2 = 0.998; r^2 = 0.997), limit of quantification (3.03 µg/mL; 4.50 µg/mL) and limit of detection (0.91 µg/mL; 1.35 µg/mL) for P293BL and P297, respectively.
In vitro permeation studies were carried out by using vertical Franz diffusion cell (Rofarma, Gaggiano, Italy). […] A correction for the cumulative dilution, due to the sample replacement with an equal volume of fresh medium, was calculated. […]

Another data set concerns the target T1, hA1AR (Homo sapiens, UniProt P30542).
T1 construct: host or cells: CHO cells
T1 sequence (P30542 1-326): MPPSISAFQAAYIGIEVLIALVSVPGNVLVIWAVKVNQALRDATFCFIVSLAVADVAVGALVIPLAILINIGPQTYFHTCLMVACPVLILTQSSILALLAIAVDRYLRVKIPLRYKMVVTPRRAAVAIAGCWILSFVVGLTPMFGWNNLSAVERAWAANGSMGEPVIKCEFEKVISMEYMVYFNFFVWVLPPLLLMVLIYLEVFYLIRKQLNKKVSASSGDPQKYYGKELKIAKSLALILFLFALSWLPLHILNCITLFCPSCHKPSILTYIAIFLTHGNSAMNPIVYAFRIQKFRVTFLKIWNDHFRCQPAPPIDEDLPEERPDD
Put plainly: Competition binding, [3H]DPCPX, hA1 CHO cell membranes. The conditions noted are these: displacement of [3H]DPCPX, hA1 CHO cells; mean ± SEM of four assays. As to the method: CHO cells transfected with hA1, hA2A, hA2B and hA3 ARs (Perkin Elmer, Boston, MA, USA) were grown adherently and maintained in Dulbecco’s modified Eagle’s medium with nutrient mixture F12, containing 10% fetal calf serum, penicillin (100 U/mL), streptomycin (100 μg/mL), L-glutamine (2 mM) and geneticine (G418; 0.2 mg/mL), at 37 °C, in 5% CO2/95% air, until their use in cAMP assays. For membrane preparation, the culture medium was removed, and the cells were washed with phosphate-buffered saline and scraped off T75 flasks in ice-cold hypotonic buffer (5 mM Tris HCl, 1 mM EDTA, pH 7.4). The cell suspension was homogenized with a Polytron, centrifuged for 30 min at 40,000× g, at 4 °C, and the resulting membrane pellet was used for competition binding experiments.
All synthesized compounds were tested for their affinity to hA1, hA2A and hA3 ARs. Competition experiments to hA1AR were carried out by incubating 1 nM [^3H]-8-cyclopentyl-1,3-dipropylxanthine ([^3H]-DPCPX) with membrane suspension (50 μg of protein/100 μL) and different concentrations of the examined compounds at 25 °C for 90 min in 50 mM Tris HCl, pH 7.4. Non-specific binding was defined as binding in the presence of 1 μM DPCPX and was always <10% of the total binding. Inhibition experiments to hA2A ARs were performed by incubating the radioligand [^3H]-4-(-2-[7-amino-2-{2-furyl}{1,2,4}triazolo{2,3-a} {1,3,5}triazin-5-yl-amino]ethyl)phenol ([^3H]-ZM241385) (1 nM) with the membrane suspension (50 μg of protein/100 μL) and different concentrations of the examined compounds for 60 min, at 4 °C, in 50 mM Tris HCl (pH 7.4), 10 mM MgCl2. Non-specific binding was determined in the presence of ZM241385 (1 μM) and was about 20% of the total binding. Competition binding experiments to A3ARs were carried out by incubating the membrane suspension (50 μg of protein/100 μL) with 0.5 nM [^125I]-N6-(4-aminobenzyl)-N-methylcarboxamidoadenosine ([^125I]-ABMECA) in the presence of different concentrations of the examined compounds for an incubation time of 120 min, at 4 °C, in 50 mM Tris HCl (pH 7.4), 10 mM MgCl2, 1 mM EDTA. Non-specific binding was defined as binding in the presence of 1 μM ABMECA and was always <10% of the total binding. Bound and free radioactivity were separated by filtering the assay mixture through Whatman GF/B glass-fiber filters, using a Brandel cell harvester (Brandel Instruments, Unterföhring, Germany). The filter bound radioactivity was counted by Packard Tri Carb 2810 TR scintillation counter (Perkin Elmer).
The protein concentration was determined according to a Bio-Rad method, with bovine albumin as a standard reference. Inhibitory binding constant (Ki) values were calculated from those of IC50 according to the Cheng–Prusoff equation, Ki = IC50/(1 + [C*]/KD*), where [C*] is the concentration of the radioligand, and KD* its dissociation constant. Ki and IC50 values were calculated by non-linear regression analysis, using the equation for a sigmoid concentration-response curve (Graph-PAD Prism, San Diego, CA, USA).
On the technique in general: Displacement assays read how much labelled ligand stays bound in the presence of the test substance.

Take `N#Cc1c(N)nc(SCc2ncc[nH]2)c(C#N)c1-c1ccco1` [Compound 1, 2-Amino-4-(furan-2-yl)-6-[(1H-imidazol-2-ylmethyl)sulfanyl]pyridine-3,5-dicarbonitrile]: the solubility in data set [1] was 0.0406 ± 0.00016 mg/mL. Besides, the “amount of permeated drug after 24 h” value in data set [2] was 15.0 ± 1.4 µg/mL. Also, the affinity at hA1AR, expressed as Ki, was 9.63 ± 1.61 nM.
Turning to `N#Cc1c(N)nc(SCc2ncc[nH]2)c(C#N)c1-c1cccs1` [Compound 5, 2-Amino-6-[(1H-imidazol-2-ylmethyl)sulfanyl]-4-(thiophen-2-yl)pyridine-3,5-dicarbonitrile], in data set [1], the solubility turned out to be 0.0273 ± 0.00252 mg/mL. Moreover, the “amount of permeated drug after 24 h” value in data set [2] came out at 22.7 ± 1.0 µg/mL. In addition, affinity on hA1AR was put at a Ki of 2.5 ± 0.2 nM.
